Assay results as given in the NIST ThermoML archive (doi:10.1016/j.jct.2014.02.016).
Numbers after ± are expanded uncertainties.

Key:
[1] = heat capacity at constant pressure per volume; xn = mol fraction of the nth substance listed; conditions: 100 kPa, Liquid, DSC Calorimetry, x1 = 0.244
[2] = refractive index (other wavelength) (dimensionless); xn = mol fraction of the nth substance listed; conditions: 100 kPa, Liquid, Wavelength=632.8 nm, Angle minimization by sell rotation

CCCCCCCCCCCCC [tridecane] + COC(=O)OC
[1]
Conditions	heat capacity [J/K/m3]
303.5 K	2056000 ± 110000
303.6 K	2019000 ± 110000
303.7 K	1992000 ± 110000
303.8 K	1969000 ± 100000
303.9 K	1958000 ± 100000
304 K	1946000 ± 100000
304.2 K	1942000 ± 100000
304.6 K	1920000 ± 100000
305 K	1910000 ± 100000
306 K	1891000 ± 100000
307 K	1874000 ± 100000
308 K	1870000 ± 100000
309 K	1860000 ± 99000
310 K	1850000 ± 99000
311 K	1843000 ± 98000
312.1 K	1839000 ± 98000
313 K	1837000 ± 98000
315 K	1830000 ± 98000
316 K	1827000 ± 98000
317 K	1825000 ± 97000
318 K	1824000 ± 97000
319.01 K	1821000 ± 97000
320 K	1819000 ± 97000
321 K	1817000 ± 97000
322 K	1815000 ± 97000
323 K	1816000 ± 97000
324 K	1813000 ± 97000
325 K	1812000 ± 97000
326 K	1810000 ± 97000
327 K	1809000 ± 97000
328 K	1809000 ± 97000
329 K	1808000 ± 97000
330 K	1806000 ± 96000
331 K	1805000 ± 96000
332 K	1805000 ± 96000
333 K	1804000 ± 96000
334 K	1802000 ± 96000
335 K	1801000 ± 96000
336 K	1802000 ± 96000
337 K	1801000 ± 96000
338 K	1798000 ± 96000
339 K	1797000 ± 96000
340 K	1799000 ± 96000
341.01 K	1798000 ± 96000
342 K	1799000 ± 96000

[2]
Conditions	refractive index
293.35 K, x1 = 0.073	1.3756 ± 0.0003
293.35 K, x1 = 0.57	1.4085 ± 0.0003
294.57 K, x1 = 0.078	1.3756 ± 0.0003
294.57 K, x1 = 0.553	1.4072 ± 0.0003
295.8 K, x1 = 0.084	1.3756 ± 0.0003
295.8 K, x1 = 0.532	1.4057 ± 0.0003
296.97 K, x1 = 0.091	1.3757 ± 0.0003
296.97 K, x1 = 0.511	1.4042 ± 0.0003
298.06 K, x1 = 0.099	1.376 ± 0.0003
298.06 K, x1 = 0.492	1.4028 ± 0.0003
299.12 K, x1 = 0.108	1.3764 ± 0.0003
299.12 K, x1 = 0.467	1.4011 ± 0.0003
299.84 K, x1 = 0.115	1.3767 ± 0.0003
299.84 K, x1 = 0.452	1.4 ± 0.0003
300.52 K, x1 = 0.124	1.3772 ± 0.0003
300.52 K, x1 = 0.432	1.3987 ± 0.0003
301.09 K, x1 = 0.132	1.3777 ± 0.0003
301.09 K, x1 = 0.415	1.3975 ± 0.0003
301.5 K, x1 = 0.141	1.3783 ± 0.0003
301.5 K, x1 = 0.398	1.3964 ± 0.0003
301.8 K, x1 = 0.147	1.3787 ± 0.0003
301.8 K, x1 = 0.386	1.3956 ± 0.0003
302.21 K, x1 = 0.158	1.3795 ± 0.0003
302.21 K, x1 = 0.365	1.3942 ± 0.0003
302.36 K, x1 = 0.165	1.38 ± 0.0003
302.36 K, x1 = 0.356	1.3936 ± 0.0003
302.48 K, x1 = 0.17	1.3804 ± 0.0003
302.48 K, x1 = 0.348	1.3931 ± 0.0004
302.56 K, x1 = 0.176	1.3808 ± 0.0003
302.56 K, x1 = 0.341	1.3926 ± 0.0003
302.63 K, x1 = 0.18	1.3811 ± 0.0003
302.63 K, x1 = 0.335	1.3922 ± 0.0003
302.7 K, x1 = 0.184	1.3814 ± 0.0003
302.7 K, x1 = 0.329	1.3918 ± 0.0003
302.79 K, x1 = 0.191	1.382 ± 0.0003
302.79 K, x1 = 0.317	1.391 ± 0.0003
302.83 K, x1 = 0.195	1.3823 ± 0.0003
302.83 K, x1 = 0.311	1.3906 ± 0.0003
302.86 K, x1 = 0.202	1.3828 ± 0.0003
302.86 K, x1 = 0.303	1.3901 ± 0.0003
302.89 K, x1 = 0.206	1.3831 ± 0.0003
302.89 K, x1 = 0.297	1.3897 ± 0.0003
302.91 K, x1 = 0.211	1.3835 ± 0.0003
302.91 K, x1 = 0.291	1.3893 ± 0.0003
302.92 K, x1 = 0.214	1.3837 ± 0.0003
302.92 K, x1 = 0.289	1.3891 ± 0.0003
302.93 K, x1 = 0.218	1.384 ± 0.0003
302.93 K, x1 = 0.284	1.3888 ± 0.0003
302.94 K, x1 = 0.223	1.3844 ± 0.0003
302.94 K, x1 = 0.226	1.3846 ± 0.0003
302.94 K, x1 = 0.275	1.3882 ± 0.0003
302.94 K, x1 = 0.278	1.3884 ± 0.0003
304.39 K, x1 = 0.097	1.3728 ± 0.0003
304.39 K, x1 = 0.196	1.3818 ± 0.0003
304.39 K, x1 = 0.297	1.389 ± 0.0003
304.39 K, x1 = 0.401	1.3953 ± 0.0003
304.39 K, x1 = 0.497	1.4002 ± 0.0003
304.39 K, x1 = 0.583	1.404 ± 0.0003
304.39 K, x1 = 0.71	1.4094 ± 0.0003
304.39 K, x1 = 0.795	1.4126 ± 0.0003
304.39 K, x1 = 0.899	1.4163 ± 0.0003
